Test results from US20060194969A1, “4-Substituted benzimidazoles and their uses as inhibitors of gastric secretion” (priority 2002, published 2006).

Tests used:
[1] = system: pentagastrin-stimulated acid secretion of the perfused rat stomach; test: Secretion-inhibiting action on the perfused rat stomach (pentagastrin-stimulated acid secretion, intraduodenal administration in vivo); conditions: intraduodenal, dose 1 μmol/kg i.d., anesthetized female CD rat
Text: Testing of the Secretion-Inhibiting Action on the Perfused Rat Stomach
In Table A which follows, the influence of the compounds according to the invention on the pentagastrin-stimulated acid secretion of the perfused rat stomach after intraduodenal administration in vivo is shown.
The abdomen of anesthetized rats (CD rat, female, 200-250 g; 1.5 g/kg i.m. urethane) was opened after tracheotomy by a median upper abdominal incision and a PVC catheter was fixed transorally in the esophagus and another via the pylorus such that the ends of the tubes just projected into the gastric lumen. The catheter leading form the pylorus led outward into the right abdominal wall through a side opening.
After thorough rinsing (about 50-100 ml), warm (37° C.) physiological NaCl solution was continuously passed through the stomach (0.5 ml/min, pH 6.8-6.9; Braun-Unita I). The pH (pH meter 632, glass electrode EA 147; φ=5 mm, Metrohm) and, by titration with a freshly prepared 0.01 N NaOH solution to pH 7 (Dosimat 665 Metrohm), the secreted HCl were determined in the effluent in each case collected at an interval of 15 minutes.
The gastric secretion was stimulated by continuous infusion of 1 μg/kg (=1.65 ml/h) of i.v. pentagastrin (left femoral vein) about 30 min after the end of the operation (i.e. after determination of 2 preliminary fractions). The substances to be tested were administered intraduodenally in a 2.5 ml/kg liquid volume 60 min after the start of the continuous pentagastrin infusion.
The body temperature of the animals was kept at a constant 37.8-38° C. by infrared irradiation and heat pads (automatic, stepless control by means of a rectal temperature sensor).

| melting point | SMILES | inhibition in vivo at 1 µmol/kg [1] |
| --- | --- | --- |
| 183 to 184 °C | CCc1cccc(C)c1CNc1cc(C(=O)N(C)C)cc2c1ncn2C.Cl [Example 45, 6-(N,N-Dimethylaminocarbonyl)-4-(2-ethyl-6-methyl-benzylamino)-1-methyl-1H-benzimidazole Hydrochloride] | > 50% |
| 252 to 253 °C | CNC(=O)c1cc(NCc2c(C)cccc2C)c2nc(C)n(C)c2c1 [Example 55, 4-(2,6-Dimethyl-benzylamino)-1,2-dimethyl-6-(N-methylaminocarbonyl)-1H-benzimidazole] | > 50% |
| 142 to 143 °C | Cc1cccc(C)c1CNc1cc(C(=O)N(C)C)cc2c1nc(C)n2C [Example 46, 6-(N,N-Dimethylaminocarbonyl)-4-(2,6-dimethyl-benzylamino)-1,2-dimethyl-1H-benzimidazole] | > 50% |
| 126 °C | CCc1cccc(C)c1CNc1cc(C(=O)N2CCCC2)cc2c1nc(C)n2C [Example 40, 4-(2-Ethyl-6-methyl-benzylamino)-1,2-dimethyl-6-(pyrrolidinocarbonyl)-1H-benzimidazole] | > 50% |
| 229 to 231 °C | CCc1cccc(C)c1CNc1cc(C(=O)N2CCOCC2)cc2c1nc(C)n2C [Example 41, 4-(2-Ethyl-6-methyl-benzylamino)-1,2-dimethyl-6-(morpholinocarbonyl)-1H-benzimidazole] | > 50% |
| 144 to 145 °C | Cc1nc2c(O[C@@H]3c4ccccc4C[C@H]3O)cc(C(=O)N(C)C)cc2n1C.O=C(O)C(=O)O (relative stereo) [Example 10, 4-(trans-2,3-Dihydro-2-hydroxy-1-indenyloxy)-6-(N,N-dimethylaminocarbonyl)-1,2-dimethyl-1H-benzimidazole Oxalate] | > 50% |
